Assay results taken from patent publication US7547676B2, “Antagonist peptides to the C5A chemotactic function of vitamin D binding protein” (The Research Foundation of State University of New York, priority 2004, dated 2009).

How the values were obtained:
neutrophils [1] = experiment: Neutrophil chemotaxis assay, C5a co-chemotactic activity of DBP; format: cell-based, human; set-up: effect on co-chemotactic activity of DBP, dose-response: dose or concentration left out as unconfirmed
Description: Isolation of human neutrophils Neutrophils, serum, and plasma were isolated from the venous blood of healthy, medication-free, paid volunteers who gave informed consent. The Institutional Review Board of Stony Brook University approved this procedure. These procedures have been described in detail previously (Kew et al., 1995a).
Neutrophil chemotaxis assay Cell movement was quantitated using a 48 well microchemotaxis chamber (Neuroprobe, Cabin John, Md.) and 5.0 μm pore size cellulose nitrate filters (purchased from Neuroprobe) as previously described (Kew et al., 1995a). Cell suspensions and chemotactic factors were prepared and/or diluted in the chemotaxis assay buffer (Hank's balanced salt solution supplemented with 10 mM HEPES (pH 7.4) and 1% bovine serum albumin). Cell movement was quantitated microscopically by measuring the distance in microns (μm) that the leading front of cells had migrated into the filter according to the method described by Zigmond and Hirsch (1973). In each experiment, five fields per duplicate filter were measured at 400× magnification.

DBP = biological target: T1, DBP (Homo sapiens, UniProt P02774); conditions: Cooke and Haddad, 1989; cited from earlier work
T1 sequence (P02774 17-474): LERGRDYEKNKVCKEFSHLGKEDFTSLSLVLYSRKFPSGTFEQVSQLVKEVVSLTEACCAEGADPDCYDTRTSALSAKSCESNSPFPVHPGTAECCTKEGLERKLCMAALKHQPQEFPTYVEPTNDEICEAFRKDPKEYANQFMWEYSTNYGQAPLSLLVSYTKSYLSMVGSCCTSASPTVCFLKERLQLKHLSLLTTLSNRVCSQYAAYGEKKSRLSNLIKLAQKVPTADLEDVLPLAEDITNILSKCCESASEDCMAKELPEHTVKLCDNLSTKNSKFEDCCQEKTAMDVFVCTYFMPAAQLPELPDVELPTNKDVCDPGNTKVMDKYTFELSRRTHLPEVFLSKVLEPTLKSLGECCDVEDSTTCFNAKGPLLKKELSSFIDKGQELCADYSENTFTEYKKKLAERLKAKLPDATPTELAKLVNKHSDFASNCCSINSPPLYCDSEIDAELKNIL

[2] = test system: Alkaline phosphatase activity on the plasma membrane of viable neutrophils; experiment: Neutrophil alkaline phosphatase assay (DiFMUP); format: cell-based, human; conditions: 5×10^6 cells pretreated with 10 nM 1,25(OH)2D3 or 10 μM SOV; untreated 11,107±1335 units
Method: Neutrophil alkaline phosphatase assay Alkaline phosphatase activity on the plasma membrane of viable neutrophils was measured using the fluorescent substrate 6,8-difluoro-4-methylumbelliferyl phosphate (DiFMUP) and the EnzChek Phosphatase Assay Kit (Molecular Probes, Eugene, Oreg.). Neutrophils (5×10^6 cells) were suspended in 50 μl of 0.1M sodium acetate (pH 5.0) and were immediately added to microtiter plates containing 50 μl of 0.2mM DiFMUP substrate and incubated for 5 min at 22° C. in the dark. A standard curve was generated using known amounts of the fluorescent compound 6,8-difluoro-7-hydroxy-4-methylcoumarin. Fluorescence was measured at 358 nm excitation and 455 nm emission using a SpectraMax M2 microtiter plate reader (Molecular Devices, Sunnydale, Calif.).

neutrophils [3] = experiment: Neutrophil viability; format: cell-based, human; conditions: 10 μM SOV

Row | Compound | effect on co-chemotactic activity of DBP, dose-response (neutrophils [1]; bound to DBP) | effect on co-chemotactic activity of DBP (neutrophil chemotaxis toward C5a) (neutrophils [1]; ligand bound to DBP, 1,25(OH)2D3 100 nM) | affinity for DBP relative to 1,25(OH)2D3 (DBP) [fold] | cells ability to migrate towards C5a plus DBP (neutrophils [1]; SOV alone) | reversal of the inhibitory effect of 1,25(OH)2D3 on the C5a co-chemotactic activity of DBP (neutrophils [1]; neutrophils pretreated with 10 μM SOV) | neutrophil AP activity [2] [units] | cell viability (neutrophils [3])
1 | C=C1CC[C@H](O)C/C1=C/C=C1\CCC[C@]2(C)[C@@H]([C@H](C)CCCC(C)(C)O)CC[C@@H]12 [25(OH)D3] | no effect on co-chemotactic activity | did not alter its ability to enhance neutrophil chemotaxis toward C5a | 10 |  |  |  | 
2 | [Na+].[Na+].[Na+].[O]=[V]([O-])([O-])[O-] [SOV, sodium orthovanadate] |  |  |  | no effect | completely reverses the inhibitory effect | 667±111 | did not alter cell viability
